Assay results reported in patent publication US10736883B2, “Triazole furan compounds as agonists of the APJ receptor” (AMGEN INC., priority 2016, dated 2020).

Molecular target: APJ receptor (Homo sapiens (Human), UniProt P35414)
Test: [35S]GTPγS binding assay on membranes from CHO cells stably expressing human APJ receptor
Type: biochemical
Details: membranes of CHO cells stably expressing human APJ receptor, means of several independent experiments, read-out: Activity hAPJ SPA EC50 IP
Procedure, shortened: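 EC50 values were obtained by non-linear regression of [35S]GTPγS (0.2 nM) binding after 90 min at RT, with nonspecific binding defined by 100 μM GTPγS. Reactions used human APJ–expressing CHO cell membranes on WGA PS beads in HEPES pH 7.5 buffer with 5 mM MgCl2, 200 mM NaCl, 3 μM GDP and 0.1% BSA.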

Chain of APJ receptor (P35414 whole entry): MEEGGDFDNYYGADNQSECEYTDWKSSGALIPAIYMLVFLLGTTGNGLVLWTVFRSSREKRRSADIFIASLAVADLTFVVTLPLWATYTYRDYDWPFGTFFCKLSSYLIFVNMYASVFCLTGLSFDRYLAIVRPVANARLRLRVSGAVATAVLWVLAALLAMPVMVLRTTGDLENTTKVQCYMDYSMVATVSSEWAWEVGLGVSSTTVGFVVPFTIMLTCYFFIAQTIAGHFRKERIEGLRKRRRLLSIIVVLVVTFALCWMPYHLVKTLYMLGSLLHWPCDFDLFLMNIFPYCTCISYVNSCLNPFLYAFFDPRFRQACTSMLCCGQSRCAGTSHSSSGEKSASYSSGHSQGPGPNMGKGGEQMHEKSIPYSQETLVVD

SMILES | EC50 [nM]
COc1cccc(OC)c1-n1c(NS(=O)(=O)CCc2ncc(Cl)cc2CCN2CCCC2)nnc1-c1ccco1 [Example 232.0, 2-(5-Chloro-3-(2-(1-pyrrolidinyl)ethyl)-2-pyridinyl)-N-(4-(2,6-dimethoxyphenyl)-5-(2-furanyl)-4H-1,2,4-triazol-3-yl)ethanesulfonamide] | 0.45
COc1cccc(OC)c1-n1c(NS(=O)(=O)CCc2ncc(Cl)cc2CCN2CCC2)nnc1-c1ccco1 [Example 235.0, 2-(3-(2-(1-Azetidinyl)ethyl)-5-chloro-2-pyridinyl)-N-(4-(2,6-dimethoxyphenyl)-5-(2-furanyl)-4H-1,2,4-triazol-3-yl)ethanesulfonamide] | 0.56
COc1cccc(OC)c1-n1c(NS(=O)(=O)CCc2ncc(Cl)cc2CCN2CC[C@H](O)C2)nnc1-c1ccco1 [Example 238.0, 2-(5-Chloro-3-(2-((3S)-3-hydroxy-1-pyrrolidinyl)ethyl)-2-pyridinyl)-N-(4-(2,6-dimethoxyphenyl)-5-(2-furanyl)-4H-1,2,4-triazol-3-yl)ethanesulfonamide] | 0.59
COc1cccc(OC)c1-n1c(NS(=O)(=O)CCc2ncc(Cl)cc2CCN2CCOCC2)nnc1-c1ccco1 [Example 239.0, 2-(5-Chloro-3-(2-(4-morpholinyl)ethyl)-2-pyridinyl)-N-(4-(2,6-dimethoxyphenyl)-5-(2-furanyl)-4H-1,2,4-triazol-3-yl)ethanesulfonamide] | 0.6
COc1cccc(OC)c1-n1c(NS(=O)(=O)[C@@H](C)[C@@](C)(O)c2ncc(F)cn2)nnc1-c1ccc(C)o1 [Example 242.0, (2S,3S)—N-(4-(2,6-Dimethoxyphenyl)-5-(5-methyl-2-furanyl)-4H-1,2,4-triazol-3-yl)-3-(5-fluoro-2-pyrimidinyl)-3-hydroxy-2-butanesulfonamide] | 0.81
COc1ncnc(OC)c1-n1c(NS(=O)(=O)CCc2ccc(F)cc2C#N)nnc1-c1ccco1 [Example 252.0, 2-(2-Cyano-4-fluorophenyl)-N-(4-(4,6-dimethoxy-5-pyrimidinyl)-5-(2-furanyl)-4H-1,2,4-triazol-3-yl)ethanesulfonamide] | 9.7
COc1ncnc(OC)c1-n1c(NS(=O)(=O)CCc2ccc(Cl)cc2)nnc1-c1ccco1 [Example 253.0, 2-(4-Chlorophenyl)-N-(4-(4,6-dimethoxy-5-pyrimidinyl)-5-(2-furanyl)-4H-1,2,4-triazol-3-yl)ethanesulfonamide] | 15
COc1cccc(OC)c1-n1c(NS(=O)(=O)[C@@H](C)[C@H](C)c2ncc(C)cn2)nnc1-c1ccc(C)o1 [Example 262.0, (2S,3R)-N-(4-(2,6-dimethoxyphenyl)-5-(5-methylfuran-2-yl)-4H-1,2,4-triazol-3-yl)-3-(5-methylpyrimidin-2-yl)butane-2-sulfonamide] | 0.07
C[C@@H](Cc1ncc(F)cn1)S(=O)(=O)Nc1nnc(-c2ccco2)n1-c1ccccc1C(F)(F)F [Example 318.0, (2S)-1-(5-Fluoro-2-pyrimidinyl)-N-(5-(2-furanyl)-4-(2-(trifluoromethyl)phenyl)-4H-1,2,4-triazol-3-yl)-2-propanesulfonamide and (2S)-1-(5-fluoro-2-pyrimidinyl)-N-(5-(2-furanyl)-4-(2-(trifluoromethyl)phenyl)-4H-1,2,4-triazol-3-yl)-2-propanesulfonamide] | 420
COc1cccc(OC)c1-n1c(NS(=O)(=O)[C@H]2C[C@@H](O)CN(c3cncc(C#N)c3)C2)nnc1-c1ccc(C)o1 [Example 334.0, (3S,5R)-1-(5-Cyanopyridin-3-yl)-N-(4-(2,6-dimethoxyphenyl)-5-(5-methylfuran-2-yl)-4H-1,2,4-triazol-3-yl)-5-hydroxypiperidine-3-sulfonamide and (3S,5R)-1-(5-cyanopyridin-3-yl)-N-(4-(2,6-dimethoxyphenyl)-5-(5-methylfuran-2-yl)-4H-1,2,4-triazol-3-yl)-5-hydroxypiperidine-3-sulfonamide] | 0.47
COc1ncnc(OC)c1-n1c(NS(=O)(=O)[C@@H](C)[C@H](C)c2ncc(Cl)cn2)nnc1-c1ccc(C)o1 [Example 383.0, (2S,3R)-3-(5-Chloropyrimidin-2-yl)-N-(4-(4,6-dimethoxypyrimidin-5-yl)-5-(5-methylfuran-2-yl)-4H-1,2,4-triazol-3-yl)butane-2-sulfonamide] | 0.06
COc1ncnc(OC)c1-n1c(NS(=O)(=O)[C@@H](C)[C@H](OC)c2ncc(Cl)cn2)nnc1-c1ccc(C)o1 [Example 384.0, (1R,2S)-1-(5-chloro-2-pyrimidinyl)-N-(4-(4,6-dimethoxy-5-pyrimidinyl)-5-(5-methyl-2-furanyl)-4H-1,2,4-triazol-3-yl)-1-methoxy-2-propanesulfonamide] | 0.15
COCC1(n2c(NS(=O)(=O)[C@@H](C)[C@H](OC)c3ncc(Cl)cn3)nnc2-c2ccc(C)o2)CC1 [Example 385.0, (1R,2S)-1-(5-chloro-2-pyrimidinyl)-1-methoxy-N-(4-(1-(methoxymethyl)cyclopropyl)-5-(5-methyl-2-furanyl)-4H-1,2,4-triazol-3-yl)-2-propanesulfonamide] | 0.38
COCCn1c(NS(=O)(=O)[C@@H](C)[C@H](OC)c2ncc(Cl)cn2)nnc1-c1ccc(C)o1 [Example 386.0, (1R,2S)-1-(5-chloropyrimidin-2-yl)-1-methoxy-N-(4-(2-methoxyethyl)-5-(5-methylfuran-2-yl)-4H-1,2,4-triazol-3-yl)propane-2-sulfonamide] | 37
COCC(COC)n1c(NS(=O)(=O)[C@@H](C)[C@H](OC)c2ncc(Cl)cn2)nnc1-c1ccc(C)o1 [Example 387.0, (1R,2S)-1-(5-chloro-2-pyrimidinyl)-N-(4-(1,3-dimethoxy-2-propanyl)-5-(5-methyl-2-furanyl)-4H-1,2,4-triazol-3-yl)-1-methoxy-2-propanesulfonamide] | 2.1
CO[C@H](c1ncc(Cl)cn1)[C@H](C)S(=O)(=O)Nc1nnc(-c2ccc(C)o2)n1C(C)C [Example 388.0, (1R,2S)-1-(5-chloropyrimidin-2-yl)-N-(4-isopropyl-5-(5-methylfuran-2-yl)-4H-1,2,4-triazol-3-yl)-1-methoxypropane-2-sulfonamide] | 37
CO[C@H](c1ncc(Cl)cn1)[C@H](C)S(=O)(=O)Nc1nnc(-c2ccc(C)o2)n1[C@H]1CCCOC1 [Example 390.0, (1R,2S)-1-(5-chloropyrimidin-2-yl)-1-methoxy-N-(5-(5-methylfuran-2-yl)-4-((S)-tetrahydro-2H-pyran-3-yl)-4H-1,2,4-triazol-3-yl)propane-2-sulfonamide] | 13
CO[C@H](c1ncc(Cl)cn1)[C@H](C)S(=O)(=O)Nc1nnc(-c2ccc(C)o2)n1[C@@H]1CCCOC1 [Example 391.0, (1R,2S)-1-(5-chloropyrimidin-2-yl)-1-methoxy-N-(5-(5-methylfuran-2-yl)-4-((R)-tetrahydro-2H-pyran-3-yl)-4H-1,2,4-triazol-3-yl)propane-2-sulfonamide] | 8.4
COCC(COC)n1c(NS(=O)(=O)[C@@H](C)[C@@H](OC(C)C)c2ncc(Cl)cn2)nnc1-c1ccc(C)o1 [Example 392.0, (1S,2S)-1-(5-chloro-2-pyrimidinyl)-N-(4-(1,3-dimethoxy-2-propanyl)-5-(5-methyl-2-furanyl)-4H-1,2,4-triazol-3-yl)-1-(2-propanyloxy)-2-propanesulfonamide] | 0.55
COc1ncnc(OC)c1-n1c(NS(=O)(=O)[C@@H](C)[C@H](C)c2ncc(F)cn2)nnc1-c1ccc(C)o1 [Example 393.0, (2S,3R)-N-(4-(4,6-dimethoxy-5-pyrimidinyl)-5-(5-methyl-2-furanyl)-4H-1,2,4-triazol-3-yl)-3-(5-fluoro-2-pyrimidinyl)-2-butanesulfonamide] | 0.28
COc1ncnc(OC)c1-n1c(NS(=O)(=O)[C@@H](C)[C@H](C)c2ncc(F)cn2)nnc1-c1ccc(Br)o1 [Example 394.0, (2S,3R)-N-(5-(5-bromo-2-furanyl)-4-(4,6-dimethoxy-5-pyrimidinyl)-4H-1,2,4-triazol-3-yl)-3-(5-fluoro-2-pyrimidinyl)-2-butanesulfonamide] | 0.31
[2H]C([2H])([2H])c1ccc(-c2nnc(NS(=O)(=O)[C@@H](C)[C@H](C)c3ncc(F)cn3)n2-c2c(OC)ncnc2OC)o1 [Example 395.0, (2S,3R)—N-(4-(4,6-Dimethoxy-5-pyrimidinyl)-5-(5-trideuteromethyl-2-furanyl)-4H-1,2,4-triazol-3-yl)-3-(5-fluoro-2-pyrimidinyl)-2-butanesulfonamide] | 0.26
COc1ncnc(OC)c1-n1c(NS(=O)(=O)[C@@H](C)[C@H](C)c2ncc(C#N)cn2)nnc1-c1ccc(C)o1 [Example 397.0, (2S,3R)-3-(5-Cyano-2-pyrimidinyl)-N-(4-(4,6-dimethoxy-5-pyrimidinyl)-5-(5-methyl-2-furanyl)-4H-1,2,4-triazol-3-yl)-2-butanesulfonamide] | 0.51
COC[C@H](C)n1c(NS(=O)(=O)[C@@H](C)[C@H](C)c2ncc(Cl)cn2)nnc1-c1ccc(C)o1 [Example 398.0, (2S,3R)-3-(5-chloro-2-pyrimidinyl)-N-(4-((2S)-1-methoxy-2-propanyl)-5-(5-methyl-2-furanyl)-4H-1,2,4-triazol-3-yl)-2-butanesulfonamide] | 10
COc1ncnc(OC)c1-n1c(NS(=O)(=O)[C@@H](C)[C@H](C)c2ccc(Cl)cn2)nnc1-c1ccc(C)o1 [Example 400.0, (2S,3R)-3-(5-chloro-2-pyridinyl)-N-(4-(4,6-dimethoxy-5-pyrimidinyl)-5-(5-methyl-2-furanyl)-4H-1,2,4-triazol-3-yl)-2-butanesulfonamide] | 0.1
COc1ncnc(OC)c1-n1c(NS(=O)(=O)[C@@H](C)[C@@H](OC(C)C)c2ncc(C)cn2)nnc1-c1ccc(C)o1 [Example 401.0, (1S,2S)-N-(4-(4,6-dimethoxypyrimidin-5-yl)-5-(5-methylfuran-2-yl)-4H-1,2,4-triazol-3-yl)-1-isopropoxy-1-(5-methylpyrimidin-2-yl)propane-2-sulfonamide] | 0.53
